Reference: patent publication US11564923B2, “Compounds and pharmaceutical compositions thereof for the treatment of inflammatory disorders” (Galapagos NV, priority 2017, dated 2023)

Assays:
[1] = molecular target: T1, Recombinant human TYK2 catalytic domain (amino acids 871-1187) (Homo sapiens, UniProt P29597); assay: TYK2 ADPglo kinase assay; format: biochemical; further: 12 µM ATP
T1 construct: catalytic domain (amino acids 871-1187)
T1 sequence (P29597 871-1187): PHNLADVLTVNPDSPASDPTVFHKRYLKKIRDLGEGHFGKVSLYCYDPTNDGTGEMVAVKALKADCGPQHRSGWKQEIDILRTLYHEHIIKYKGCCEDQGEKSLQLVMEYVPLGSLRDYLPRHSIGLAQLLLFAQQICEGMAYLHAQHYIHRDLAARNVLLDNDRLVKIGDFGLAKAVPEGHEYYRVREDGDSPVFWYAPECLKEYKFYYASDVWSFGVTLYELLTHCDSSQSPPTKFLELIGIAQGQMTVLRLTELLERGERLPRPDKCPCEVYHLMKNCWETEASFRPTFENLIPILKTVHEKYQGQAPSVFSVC
Procedure: After 120 min at room temperature, reactions were stopped and the remaining ATP is depleted by adding 5 μL/well of ADP Glo Reagent (Promega, catalog number V912B). After 40 min at room temperature, 10 μl Kinase Detection Reagent (Kinase Detection Substrate (Promega, catalog number V914B) dissolved in Kinase Detection Buffer (Promega, catalog number V913B)) is added to convert ADP to ATP and to measure this newly synthesized ATP in a luciferase/luciferin reaction. Readout is performed after 30 min incubation at room temperature using the Envision. Kinase activity is calculated by subtracting the relative light units (RLU) obtained in the presence of a positive control inhibitor (10 μM staurosporine) from the RLU obtained in the presence of vehicle. The ability of a test compound to inhibit this activity (or percentage inhibition) is determined as:
RLU test compound=RLU determined for sample with test compound present
RLU control=RLU determined for sample with positive control inhibitor
RLU vehicle=RLU determined in the presence of vehicle
Dose dilution series were prepared for the compounds enabling the testing of dose-response effects in the TYK2 assay and the calculation of the IC50 for the compound. Each compound is routinely tested at concentration of 20 μM followed by a 1/5 serial dilution, 10 points in a final concentration of 1% DMSO. […] The data are expressed as the average IC50 from the assays.

[2] = system: IL-12 activation of STAT4 in NK-92 cells; assay: IL-12 activation of STAT4 in NK-92 cells using AphaLISA SureFire technology; format: cell-based; conditions: Homo sapiens, NK92; IL-12 activation of STAT4 in NK-92 cells, AlphaLISA SureFire; average IC50; read-out: IL12 pSTAT4 IC50
In short: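 NK-92 cells, starved of rhIL-2 overnight, were stimulated with rhIL-12 for 30 min at 37 °C with test compounds, then lysed. Phospho-STAT4 (Tyr693) was read by AlphaLISA SureFire. Percent inhibition versus the vehicle-plus-trigger signal was fitted by sigmoidal nonlinear regression to give IC50, averaged over experiments.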

[3] = system: IFNα stimulation, Phospho-STAT1 on CD4+ cells in human whole blood; assay: Human whole blood assay (hWBA), IFNα stimulation; format: cell-based; conditions: Universal type I IFN 1000 U/mL, pSTAT1 on CD4+ cells, read-out: IFN α IC50
Procedure: (§1) A flow cytometry analysis is performed to establish JAK1 and TYK2 compound potency ex vivo using human whole blood. Therefore, blood is taken from human volunteers who gave informed consent, then equilibrated for 30 min at 37° C. under gentle rocking and aliquoted in Eppendorf tubes. Compound is added at different concentrations and incubated at 37° C. for 30 min under gentle rocking and subsequently stimulated for 20 min at 37° C. under gentle rocking with interleukin 6 (IL-6) for JAK-dependent pathway stimulation or IFNα for TYK2-dependent pathway stimulation. Phospho-STAT1 is then evaluated using FACS analysis.
(§2) The remaining diluted Lyse/Fix buffer is discarded.
(§3) A 3-fold dilution series of the compound is prepared in DMSO (10 mM stock solution). Control-treated samples received DMSO instead of compound. All samples are incubated with a 1% final DMSO concentration.
Human blood is collected in heparinized tubes. The blood is divided in aliquots of 148.5 μL. Then, 1.5 μL of the test compound dilution is added to each blood aliquot and the blood samples are incubated for 30 min at 37° C. under gentle rocking. One and a half microliter of 10-fold diluted IL-6 stock solution or Universal type 1 IFN is added to the blood samples (final concentration 10 ng/mL and 1000 U/mL, respectively) and samples are incubated at 37° C. for 20 min under gentle rocking.
At the end of the stimulation period, 3 mL of 1× pre-warmed Lyse/Fix buffer is immediately added to the blood samples, vortexed briefly and incubated for 15 min at 37° C. in a water bath in order to lyse red blood cells and fix leukocytes.
Tubes are centrifuged for 5 min at 400×g at 4° C. The cell pellet is washed with 3 mL of cold 1×PBS, and after centrifugation the cell pellet is resuspended in 100 μL of ice-cold 1×PBS and 900 μL ice-cold 100% MeOH is added. Cells are then incubated at 4° C. for 30 min for permeabilization.
Permeabilized cells are then washed with 1×PBS containing 3% BSA and finally resuspended in 80 μL of 1×PBX containing 3% BSA.
(§4) Cells are then washed once with 1×PBS and analyzed on a FACSCanto II flow cytometer (BD Biosciences).
(§5) 50,000 total events are counted and Phospho-STAT1 positive cells are measured after gating on CD4+ cells, in the lymphocyte gate.

[4] = system: IFNα activation of STAT1 in PBMC; assay: IFNα activation of STAT1 in PBMC; format: cell-based; conditions: Homo sapiens; IFNα activation of STAT1 in PBMC; average IC50; read-out: IFNα signaling inhibitory potency IC50
In short: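 Human PBMC, with red cells lysed by NH4Cl, were pre-treated with compound for 30 min at 37 °C and 5% CO2. They were then stimulated for 30 min with recombinant human IFNα at 5 ng/mL final.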

[5] = system: IL-6 stimulation, Phospho-STAT1 on CD4+ cells in human whole blood; assay: Human whole blood assay (hWBA), IL-6 stimulation; format: cell-based; conditions: IL-6 10 ng/mL, pSTAT1 on CD4+ cells, read-out: IL6 IC50
Procedure: as §1, §2, §3
Human blood is collected in heparinized tubes. The blood is divided in aliquots of 148.5 μL. Then, 1.5 μL of the test compound dilution is added to each blood aliquot and the blood samples are incubated for 30 min at 37° C. under gentle rocking. […]
as §4, §5

Cc1cc(C#N)ncc1Oc1cc(Nc2ccc(N3C[C@@H](C)O[C@H](C)C3)nn2)c2ncn(C)c2n1 (racemic) [Compound 176, 4-methyl-5-[3-methyl-7-[[6-[rac-(2R,6R)-2,6-dimethylmorpholin-4-yl]pyridazin-3-yl]amino]imidazo[4,5-b]pyridin-5-yl]oxypyridine-2-carbonitrile]
IC50 [1]: 0.93 nM
IC50 [2]: 40.5 nM
IC50 [3]: 757 nM
IC50 [4]: 66.5 nM

Cc1cc(C#N)ncc1Oc1cc(Nc2ccc(C(=O)N3CCN(C)CC3)nn2)c2ncn(C)c2n1 [Compound 150, 4-methyl-5-[3-methyl-7-[[6-(4-methylpiperazine-1-carbonyl)pyridazin-3-yl]amino]imidazo[4,5-b]pyridin-5-yl]oxypyridine-2-carbonitrile]
IC50 [1]: 1.1 nM
IC50 [5]: 6810 nM
IC50 [2]: 1020 nM
IC50 [3]: 269 nM
IC50 [4]: 278 nM

Cc1cc(C#N)ncc1Oc1cc(Nc2ccc(N3C[C@H](C)O[C@@H](C)C3)nn2)c2ncn(C)c2n1 [Compound 166, 5-[7-[[6-[(2S,6S)-2,6-dimethylmorpholin-4-yl]pyridazin-3-yl]amino]-3-methylimidazo[4,5-b]pyridin-5-yl]oxy-4-methylpyridine-2-carbonitrile]
IC50 [1]: 2.28 nM
IC50 [2]: 97 nM
IC50 [3]: 1450 nM
IC50 [4]: 84 nM

Cc1cc(C#N)ncc1Oc1cc(Nc2ccc(N3C[C@@H](C)O[C@H](C)C3)nn2)c2ncn(C)c2n1 [Compound 168, 5-[7-[[6-[(2R,6R)-2,6-dimethylmorpholin-4-yl]pyridazin-3-yl]amino]-3-methylimidazo[4,5-b]pyridin-5-yl]oxy-4-methylpyridine-2-carbonitrile]
IC50 [1]: 2.39 nM
IC50 [2]: 87 nM
IC50 [3]: 1070 nM
IC50 [4]: 82 nM
